Assay results reported in patent publication US10752584B2 (EMORY UNIVERSITY, priority 2016, dated 2020).

Columns and labels:
Type in all cases: cell-based
HBV e antigen (HBeAg) = experiment: HBeAg ELISA in HepAD38 cells (cccDNA-dependent marker); conditions: Hepatitis B virus, HePAD38, 336 h
Experimental: Production of secreted HBeAg is predominantly cccDNA-dependent in HepAD38 cells and therefore can serve as a surrogate marker for cccDNA (Ladner, S. K., Otto, M. J., Barker, C. S., Zaifert, K., Wang, G. H., Guo, J. T., Seeger, C., King, R. W. Antimicrob Agents Chemother 1997, 41, 1715-1720; Zhou T, Guo H, Guo J T, Cuconati A, Mehta A, Block T M. Antiviral Res. 2006; 72 (2): 116-24.). The effect on the levels of cccDNA formation was assessed using a cell-based assay that measures HBV e antigen (HBeAg) as a cccDNA-dependent marker in the HepAD38 system. HepAD38 cells were seeded at 50,000 cells/well in collagen-coated 96-well plates with DMEM/F12 medium (Life Technologies) supplemented with 10% heat-inactivated fetal bovine serum. Cells were treated with 0.3 μg/ml tetracycline as needed. Test compounds and controls were added to cells to a final concentration of 10 μM or in a dose response manner ranging from 0.001 to 10 μM. Medium and test compounds were replenished every 5 days in culture. Supernatants were harvested at day-14, clarified by centrifugation at 5000 rpm for 5 min, and stored at −70° C. until use. ELISA—Culture medium was diluted 1:15 in DMEM/F12 and the levels of HBeAg secreted in the culture medium were measured by using HBeAg ELISA kit (BioChain Institute Inc. Hayward, Calif.) according to the manufacturer's protocol. The concentration of compound that reduced levels of secreted HBeAg by 50% (EC50) was determined by linear regression.

[1] = tested on: mitochondrial DNA (COXII gene) in HepG2 cells; experiment: Mitochondrial toxicity assay in HepG2 cells: mitochondrial DNA
Description: (§1) A real-time PCR assay to accurately quantify mitochondrial DNA content has been developed (see Stuyver L J, Lostia S, Adams M, Mathew J S, Pai B S, Grier J, Tharnish P M, Choi Y, Chong Y, Choo H, Chu C K, Otto M J, Schinazi R F. Antiviral activities and cellular toxicities of modified 2′,3′-dideoxy-2′,3′-didehydrocytidine analogs. Antimicrob. Agents Chemother. 2002; 46: 3854-60). This assay was used in all studies described in this application that determine the effect of compounds on mitochondrial DNA content. In this assay, low-passage-number HepG2 cells were seeded at 5,000 cells/well in collagen-coated 96-well plates. Test compounds were added to the medium to obtain final concentrations of 0 μM, 0.1 μM, 10 μM and 100 μM. On culture day 7, cellular nucleic acids were prepared by using commercially available columns (RNeasy 96 kit; Qiagen). […] The mitochondrial cytochrome c oxidase subunit II (COXII) gene and the β-actin or rRNA gene were amplified from 5 μl of the eluted nucleic acids using a multiplex Q-PCR protocol with suitable primers and probes for both target and reference amplifications. For COXII the following sense, probe and antisense primers were used, respectively: 5′-TGCCCGCCATCATCCTA-3′, 5′-tetrachloro-6-carboxyfluorescein-[…]-TAMRA-3′ and 5′-[…]-3′. For exon 3 of the β-actin gene (GenBank accession number E01094) the sense, probe, and antisense primers are 5′-GCGCGGCTACAGCTTCA-3′, 5′-6-[…]-3′ and 5′-[…]-3′, respectively. The primers and probes for the rRNA gene are commercially available from Applied Biosystems. Since equal amplification efficiencies are obtained for all genes, the comparative CT method was used to investigate potential inhibition of mitochondrial DNA synthesis. The comparative CT method uses arithmetic formulas in which the amount of target (COXII gene) is normalized to the amount of an endogenous reference (the β-actin or rRNA gene) and is relative to a calibrator (a control with no drug at day 7). The arithmetic formula for this approach is given by 2−ΔΔCT, where ΔΔCT is (CT for average target test sample CT for target control)−(CT for average reference test−CT for reference control) (see Johnson M R, K Wang, J B Smith, M J Heslin, R B Diasio. Quantitation of dihydropyrimidine dehydrogenase expression by real-time reverse transcription polymerase chain reaction. Anal. Biochem. 2000; 278:175-184). A decrease in mitochondrial DNA content in cells grown in the presence of drug indicated mitochondrial toxicity.
(§2) The effect of compounds 7 and 9 on the levels of mitochondrial and nuclear DNA, and lactic acid production was evaluated in HepG2 cells (14-day assay), and the data is tabulated below in Table 2: […]

[2] = Cellular toxicity assay in CEM cells; conditions: human, CEM lymphoblastoid cells, read-out: Cytotoxicity
Outline: (§3)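 Compound toxicity was tested in cultured cells, with cycloheximide as positive cytotoxic control and solvent-exposed untreated cells as negative control. Cytotoxicity IC50 came from the concentration-response curve by the median effective method.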

[3] = Cellular toxicity assay in human PBM cells; conditions: human, human PBM cells, read-out: Cytotoxicity
Outline: as §3

[4] = tested on: nuclear DNA in HepG2 cells; experiment: Mitochondrial toxicity assay in HepG2 cells: nuclear DNA; conditions: Homo sapiens
Description: as §1, §2

HepG2 cells = experiment: Lactic acid production in HepG2 cells; conditions: 14-day assay
Experimental: To measure the effects of the compounds on lactic acid production, HepG2 cells from a stock culture were diluted and plated in 12-well culture plates at 2.5×10^4 cells per well. Various concentrations (0 μM, 0.1 μM, 1 μM, 10 μM and 100 μM) of compound were added, and the cultures were incubated at 37° C. in a humidified 5% CO2 atmosphere for 4 days. At day 4, the number of cells in each well was determined and the culture medium collected. The culture medium was then filtered, and the lactic acid content in the medium was determined using a colorimetric lactic acid assay (Sigma-Aldrich). Since lactic acid product can be considered a marker for impaired mitochondrial function, elevated levels of lactic acid production detected in cells grown in the presence of test compounds would indicate a drug-induced cytotoxic effect.
as §2

[5] = Cellular toxicity assay in Vero cells; conditions: African green monkey, read-out: Cytotoxicity
Outline: as §3

Structure (SMILES): C#CCNC(=O)C(=O)c1c(C)c(C(=O)Nc2ccc(F)c(F)c2)n(C)c1C [Compound 7a, 4-[(Propargylamino)(oxo)acetyl]-N-(3,4-difluorophenyl)-1,3,5-trimethyl-1H-pyrrole-2-carboxamide]
- EC50 (HBV e antigen (HBeAg); read-out: Anti-HBeAg activity EC50): 0.008 µM
- EC90 (HBV e antigen (HBeAg); read-out: Anti-HBeAg activity EC90): 0.58 µM
- inhibition at 10 µM ([1]; Homo sapiens, HepG2, 336 h, read-out: % inhibition MtDNA): < 1%
- IC50 ([1]; Homo sapiens, HepG2, 336 h, read-out: IC50 MtDNA): > 50 µM
- MtDNA (% of control) ([1]; human, 14 day, 10 μM): 110 (100-121) % of control
- CC50 [2]: > 100 µM
- CC50 [3]: > 100 µM
- IC50 ([4]; 336 h, HepG2 cells, 14-day assay): > 50 µM
- inhibition at 10 µM ([4]; 336 h, HepG2 cells, 14-day assay, 10 μM, read-out: % inhibition nDNA): 5.4%
- inhibition at 25 µM ([4]; 336 h, HepG2 cells, 14-day assay, 25 μM, read-out: % inhibition nDNA): < 1%
- inhibition at 50 µM ([4]; HepG2, 336 h, read-out: % inhibition nDNA): 13.1%
- Lactic acid production (% of control) (HepG2 cells; 10 μM): 103 ± 32.0 % of control
- Lactic acid production (% of control) (HepG2 cells; 25 μM): 106 ± 19.5 % of control
- Lactic acid production (% of control) (HepG2 cells; 50 μM): 193 ± 12.6 % of control
- CC50 [5]: > 90 µM
